In ChEMBL document CHEMBL1201862, “PubChem BioAssay data set” (2004) one finds EC50 and IC50 data, which are given here for four compounds.

Experiment [1] concerns the target T1, Endoribonuclease toxin MazF (Escherichia coli K-12, UniProt P0AE70). Description: substrate-only fluorescence increase artefacts – biochemical, single-stranded RNase substrate, counter-screen for MazEF activator project, dose response (AID 588502). The format is functional. In general terms: A counterscreen serves to expose hits that act by an unwanted route or on another target.

Experiment [2] deals with T1, Endoribonuclease toxin MazF. The experiment is described as follows: activation of MazEF endoribonuclease cleavage – biochemical, fluorescence, single-stranded RNA substrate, uHTS hits, dose response (AID 588481). The format is functional.
The target of experiment [3] is T2, Short transient receptor potential channel 4 (Mus musculus, UniProt Q9QUQ5).
T2 sequence (Q9QUQ5 whole entry): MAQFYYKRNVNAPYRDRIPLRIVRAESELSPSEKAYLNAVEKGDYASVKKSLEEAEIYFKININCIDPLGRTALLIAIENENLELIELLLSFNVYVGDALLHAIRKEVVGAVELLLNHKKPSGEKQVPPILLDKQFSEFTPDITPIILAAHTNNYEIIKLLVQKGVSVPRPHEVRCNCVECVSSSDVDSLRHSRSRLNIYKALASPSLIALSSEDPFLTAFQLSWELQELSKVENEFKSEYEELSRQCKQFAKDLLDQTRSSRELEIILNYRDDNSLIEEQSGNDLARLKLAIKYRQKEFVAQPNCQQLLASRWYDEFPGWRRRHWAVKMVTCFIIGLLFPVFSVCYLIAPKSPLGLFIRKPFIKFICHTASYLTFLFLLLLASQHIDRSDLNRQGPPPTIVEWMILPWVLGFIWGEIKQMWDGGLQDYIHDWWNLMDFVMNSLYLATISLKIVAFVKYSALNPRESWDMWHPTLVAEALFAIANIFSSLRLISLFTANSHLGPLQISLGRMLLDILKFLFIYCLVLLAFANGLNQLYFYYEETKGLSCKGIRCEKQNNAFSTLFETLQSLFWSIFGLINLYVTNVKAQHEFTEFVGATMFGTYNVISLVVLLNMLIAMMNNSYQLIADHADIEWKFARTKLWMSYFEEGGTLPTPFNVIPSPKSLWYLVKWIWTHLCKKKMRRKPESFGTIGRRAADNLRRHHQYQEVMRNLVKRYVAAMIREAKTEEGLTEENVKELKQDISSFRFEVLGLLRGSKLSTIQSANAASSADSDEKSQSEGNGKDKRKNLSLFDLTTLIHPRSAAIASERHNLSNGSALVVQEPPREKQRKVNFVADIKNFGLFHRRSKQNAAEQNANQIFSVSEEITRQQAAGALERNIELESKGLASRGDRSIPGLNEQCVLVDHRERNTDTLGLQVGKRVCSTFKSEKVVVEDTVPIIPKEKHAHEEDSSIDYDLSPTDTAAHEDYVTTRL
The experiment is described as follows: SAR Analysis for the identification of selective inhibits of the transient receptor potential cation channel C4 (TRPC4): Automated Electrophysiology_2. [Related pubchem assays (depositor defined):AID2256]. The format is functional.

For experiment [4], the target named is T2, Short transient receptor potential channel 4. Description: potency of mouse TRPC4 calcium flux blockers – cell-based, HEK293 TRPC4/mu-opioid, DAMGO stimulus, Fluo-4, dose response (AID 492994). The experiment is classed as functional. Background: Calcium flux is commonly read through the fluorescence of an indicator in the cells.
In experiment [5] the target is Potassium voltage-gated channel subfamily KQT member 2 (Rattus norvegicus, UniProt O88943). Description: rat KCNQ2 current potentiators – automated patch clamp, KCNQ2-CHO cells, SAR follow-up (AID 493113). The format is functional.
Experiment [6] addresses Intestinal-type alkaline phosphatase (Homo sapiens, UniProt P09923). Description: inhibition of human intestinal alkaline phosphatase – biochemical, dose response (AID 488876). The format is functional.
Experiment [7] has as its target Large T antigen (Simian virus 40, UniProt P03070). The experiment is classed as functional, Betapolyomavirus macacae.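 Also: Confirmatory-stage PubChem screen for compounds that inhibit SV40 T antigen.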
Experiment [8] concerns the target Intestinal-type alkaline phosphatase (Mus musculus, UniProt P24822). The experiment is described as follows: PubChem AID 488785. The format is functional.
Experiment [9] has as its target Alkaline phosphatase, tissue-nonspecific isozyme (Homo sapiens, UniProt P05186). Description: TNAP enzyme inhibition by screening hits, dose response, selectivity assay for mouse IAP inhibitor project, biochemical, human TNAP, uHTS hits (AID 488906). The format is functional.

Usually EC50 stands for the concentration that produces a half-maximal response. The IC50 is the concentration that gives 50% inhibition.

Molecules are shown by their SMILES. Calls of active or inactive are those of the source.

T1 sequence (P0AE70 whole entry): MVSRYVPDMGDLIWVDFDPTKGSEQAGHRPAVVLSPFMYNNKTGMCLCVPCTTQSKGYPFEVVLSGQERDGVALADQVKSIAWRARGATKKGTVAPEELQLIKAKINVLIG
Intestinal-type alkaline phosphatase (Mus musculus, UniProt P24822), sequence (P24822 whole entry): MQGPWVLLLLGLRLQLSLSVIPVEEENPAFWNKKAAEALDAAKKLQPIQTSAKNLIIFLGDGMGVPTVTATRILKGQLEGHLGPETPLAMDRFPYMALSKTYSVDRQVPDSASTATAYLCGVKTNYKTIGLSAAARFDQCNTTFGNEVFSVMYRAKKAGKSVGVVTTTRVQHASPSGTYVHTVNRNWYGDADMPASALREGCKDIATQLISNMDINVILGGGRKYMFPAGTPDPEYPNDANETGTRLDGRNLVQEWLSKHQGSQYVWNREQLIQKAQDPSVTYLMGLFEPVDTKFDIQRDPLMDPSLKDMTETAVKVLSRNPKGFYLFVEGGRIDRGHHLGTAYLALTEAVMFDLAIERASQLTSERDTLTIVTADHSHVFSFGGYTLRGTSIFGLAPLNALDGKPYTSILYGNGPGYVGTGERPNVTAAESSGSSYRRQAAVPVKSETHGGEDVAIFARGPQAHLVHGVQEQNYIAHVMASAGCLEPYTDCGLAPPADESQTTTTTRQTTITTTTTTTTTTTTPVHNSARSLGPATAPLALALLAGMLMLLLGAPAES
Potassium voltage-gated channel subfamily KQT member 2, sequence (O88943 whole entry): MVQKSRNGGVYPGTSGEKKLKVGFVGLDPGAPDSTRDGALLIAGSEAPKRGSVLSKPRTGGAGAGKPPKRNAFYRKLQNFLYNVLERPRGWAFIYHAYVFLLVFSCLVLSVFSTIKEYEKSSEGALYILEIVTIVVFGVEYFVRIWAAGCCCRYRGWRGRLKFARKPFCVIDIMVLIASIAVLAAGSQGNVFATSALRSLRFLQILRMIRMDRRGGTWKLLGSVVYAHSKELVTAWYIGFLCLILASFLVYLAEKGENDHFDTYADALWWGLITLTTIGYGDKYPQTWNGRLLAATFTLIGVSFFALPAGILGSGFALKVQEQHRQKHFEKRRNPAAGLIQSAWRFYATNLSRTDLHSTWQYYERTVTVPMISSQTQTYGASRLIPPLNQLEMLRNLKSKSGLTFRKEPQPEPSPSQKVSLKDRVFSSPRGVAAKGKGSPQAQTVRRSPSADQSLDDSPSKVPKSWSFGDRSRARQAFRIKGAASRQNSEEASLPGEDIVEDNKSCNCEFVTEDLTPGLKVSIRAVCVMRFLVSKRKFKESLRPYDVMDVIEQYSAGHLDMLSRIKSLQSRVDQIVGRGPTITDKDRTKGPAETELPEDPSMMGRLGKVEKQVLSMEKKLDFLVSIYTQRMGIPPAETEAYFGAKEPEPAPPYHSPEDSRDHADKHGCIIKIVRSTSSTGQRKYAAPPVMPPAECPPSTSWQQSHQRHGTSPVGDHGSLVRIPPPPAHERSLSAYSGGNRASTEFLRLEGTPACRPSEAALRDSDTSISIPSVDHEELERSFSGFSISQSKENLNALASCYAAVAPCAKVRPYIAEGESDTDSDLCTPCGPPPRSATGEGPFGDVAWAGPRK
Large T antigen, sequence (P03070 whole entry): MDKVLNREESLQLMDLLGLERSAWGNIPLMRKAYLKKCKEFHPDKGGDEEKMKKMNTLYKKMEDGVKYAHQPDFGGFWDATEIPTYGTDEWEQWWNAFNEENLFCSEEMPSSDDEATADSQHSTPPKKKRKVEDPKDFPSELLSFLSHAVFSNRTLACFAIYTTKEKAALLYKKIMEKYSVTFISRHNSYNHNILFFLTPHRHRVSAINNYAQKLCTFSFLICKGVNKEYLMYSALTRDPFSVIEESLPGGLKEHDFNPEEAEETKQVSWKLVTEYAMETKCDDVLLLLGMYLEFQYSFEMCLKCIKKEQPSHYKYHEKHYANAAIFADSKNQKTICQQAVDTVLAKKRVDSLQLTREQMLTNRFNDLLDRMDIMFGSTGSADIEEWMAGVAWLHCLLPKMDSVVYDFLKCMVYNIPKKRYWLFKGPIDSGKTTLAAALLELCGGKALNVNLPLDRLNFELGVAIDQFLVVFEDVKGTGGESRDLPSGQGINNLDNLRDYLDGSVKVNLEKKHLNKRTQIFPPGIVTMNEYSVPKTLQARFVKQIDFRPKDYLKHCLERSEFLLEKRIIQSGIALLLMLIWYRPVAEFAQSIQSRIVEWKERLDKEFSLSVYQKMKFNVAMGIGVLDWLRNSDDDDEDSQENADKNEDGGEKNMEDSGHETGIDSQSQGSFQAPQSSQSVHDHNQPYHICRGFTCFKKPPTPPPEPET
Intestinal-type alkaline phosphatase (Homo sapiens, UniProt P09923), sequence (P09923 whole entry): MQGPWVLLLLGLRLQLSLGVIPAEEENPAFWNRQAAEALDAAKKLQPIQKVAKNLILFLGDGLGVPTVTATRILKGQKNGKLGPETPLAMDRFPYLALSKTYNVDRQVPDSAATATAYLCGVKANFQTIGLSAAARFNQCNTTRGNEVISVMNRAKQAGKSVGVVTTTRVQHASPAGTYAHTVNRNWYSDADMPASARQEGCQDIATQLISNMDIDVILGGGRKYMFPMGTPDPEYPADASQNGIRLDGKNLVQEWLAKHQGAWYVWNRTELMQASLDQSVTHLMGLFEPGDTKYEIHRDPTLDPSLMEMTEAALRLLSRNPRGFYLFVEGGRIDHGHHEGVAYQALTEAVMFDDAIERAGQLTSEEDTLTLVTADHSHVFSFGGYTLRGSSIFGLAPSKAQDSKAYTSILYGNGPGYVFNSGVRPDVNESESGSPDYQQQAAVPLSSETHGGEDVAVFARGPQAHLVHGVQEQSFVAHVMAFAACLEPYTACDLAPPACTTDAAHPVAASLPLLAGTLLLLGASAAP
Alkaline phosphatase, tissue-nonspecific isozyme, sequence (P05186 whole entry): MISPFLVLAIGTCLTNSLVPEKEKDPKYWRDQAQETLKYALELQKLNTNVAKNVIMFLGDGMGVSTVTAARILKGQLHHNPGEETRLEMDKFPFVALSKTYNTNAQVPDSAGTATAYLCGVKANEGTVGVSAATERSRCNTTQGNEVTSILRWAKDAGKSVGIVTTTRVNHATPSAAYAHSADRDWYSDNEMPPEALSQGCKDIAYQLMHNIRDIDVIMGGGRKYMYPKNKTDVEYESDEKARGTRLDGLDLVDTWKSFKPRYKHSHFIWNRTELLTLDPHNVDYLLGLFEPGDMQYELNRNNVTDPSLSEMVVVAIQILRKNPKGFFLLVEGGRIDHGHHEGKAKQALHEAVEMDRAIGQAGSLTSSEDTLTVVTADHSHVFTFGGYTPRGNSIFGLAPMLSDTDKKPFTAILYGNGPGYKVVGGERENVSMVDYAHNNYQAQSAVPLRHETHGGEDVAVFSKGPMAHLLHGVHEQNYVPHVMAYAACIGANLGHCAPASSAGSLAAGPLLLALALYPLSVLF

Consider `Cc1c(C=NNC(=O)c2ccc(Br)cc2)c2ccccn2c1C(=O)c1ccncc1`, for which the EC50 in experiment [1] and in [2] was > 99 µM (inactive) each time.

Take `CCc1ccc2nc(N3CCCCCC3)cc(C)c2c1`: the concentration for half-maximal inhibition (IC50) in [3] was 3.3 µM (active); in experiment [4], 7.37 µM (active).

Take `Nc1cccc(NC(=O)C2CC3CCC2C3)n1` (centres undefined): in experiment [5], the EC50 was 1.81 µM (active).

With `O=S(=O)(c1ccc(NC(=S)N/N=C/c2ccc(O)c(O)c2)cc1)N1CCOCC1`, the IC50 in experiment [6] was < 0.195 µM (active); in [7], 38.4 µM (active); in [8], 2.84 µM (active); in experiment [9], 15.1 µM (active).
